# Data: patent US11000033B2, “Ketone or oxime compound, and herbicide” (NISSAN CHEMICAL CORPORATION, priority 2014, dated 2021)
# What was measured:
# Format in all cases: in vivo
# soybean = assay: Test Example 4: effect on crop by soil treatment (symbol d); conditions: for d (soybean) effect on crop grade: application herbicide amount 320 g/ha
# How it was run: (§1)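 The test used sterilized diluvial soil. Seed was set down in spots and overlaid with about 1.5 cm of soil before growth in a greenhouse kept at 25° C. to 30° C.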
# transplanted rice plant = assay: Test Example 1: effect on crop, application before weed generation in submerged conditions (symbol a); conditions: application herbicide amount 320 g/ha
# How it was run: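 Alluvial soil pots flooded to 4 cm water, sown with Echinochloa oryzacola, Scirpus juncoides and Monochoria vaginalis, then transplanted with 2.5 leaf stage rice seedlings; pre-emergence application. Greenhouse 25° C. to 30° C.; scored 0–5 by herbicidal ratio 3 weeks after application.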
# Avena fatua = assay: Test Example 4: herbicidal effect by soil treatment (symbol I); conditions: for I (Avena fatua) herbicidal effect grade: application herbicide amount 320 g/ha
# How it was run: (§2)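 Seeds were sown in sterilized diluvial soil, covered with about 1.5 cm of soil, and the soil surface was sprayed with a water-diluted emulsion of the compound at a predetermined rate. Plants grew in a greenhouse at 25° C. to 30° C.; effects were scored visually 3 weeks after application.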
# Setaria viridis = assay: Test Example 5: herbicidal effect by foliage application, plastic box (symbol G); conditions: 320 g/ha, 3 weeks after application
# How it was run: (§3)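 Sowing in sterilized diluvial soil, 14 days' greenhouse growth at 25° C. to 30° C., then uniform small-sprayer foliar application of aqueous emulsion dilution; plants scored three weeks afterwards.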
# [1] = tested on: Echinochloa oryzacola Vasing.; assay: Test Example 2: herbicidal activity, application during weed generation in submerged conditions (symbol A); conditions: Table 23; application herbicide amount 320 g/ha; grade 0-5 by criteria of Test Example 1
# How it was run: (§4)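 Compound was applied as a water-diluted emulsion into the standing water of flooded pots (4 cm) once co-sown weeds reached one to two leaves. Greenhouse temperature was 25° C. to 30° C., soil was alluvial, and each species was rated visually after 3 weeks.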
# Abutilon theophrasti [2] = assay: Test Example 4: herbicidal effect by soil treatment (symbol M); conditions: for M (Abutilon theophrasti) herbicidal effect grade: application herbicide amount 320 g/ha
# How it was run: as §2
# Abutilon theophrasti [3] = assay: Test Example 5: herbicidal effect by foliage application, plastic box (symbol M); conditions: 320 g/ha, 3 weeks after application
# How it was run: as §3
# Scirpus juncoides = assay: Test Example 2: herbicidal activity, application during weed generation in submerged conditions (symbol B); conditions: Table 23; application herbicide amount 320 g/ha; grade 0-5 by criteria of Test Example 1
# How it was run: as §4
# beet [4] = assay: Test Example 4: effect on crop by soil treatment (symbol f); conditions: for f (beet) effect on crop grade: application herbicide amount 320 g/ha
# How it was run: as §1
# Lolium multiflorum Lam. = assay: Test Example 5: herbicidal effect by foliage application, plastic box (symbol K); conditions: 320 g/ha, 3 weeks after application
# How it was run: as §3
# Leptochloa chinensis = assay: Test Example 3: herbicidal effect by foliage application, Wagner pot (symbol D); conditions: application herbicide amount 320 g/ha
# How it was run: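 In a shallow-flooded alluvial soil system held at 25–30 °C, plants including rice grew for 14 days and were then sprayed over the foliage with emulsion diluted to a fixed herbicide amount. Visual rating followed at 3 weeks.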
# beet [5] = assay: Test Example 5: effect on crop by foliage application, plastic box (symbol f); conditions: 320 g/ha, 3 weeks after application
# How it was run: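 Foliage-application test plants come from spot sowing in sterilized diluvial soil under a soil layer of about 1.5 cm, grown at 25° C. to 30° C. in a greenhouse.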
smiles,measurement,setting,value
CON=C(C)CC1CC(OC(=O)COc2ccccc2)=C(c2c(C)cc(C)cc2C)C1=O (stereo not drawn) [1-043],d (soybean) effect on crop grade,soybean,1 (Herbicidal ratio of 5% or higher and lower than 20%)
same,"Effect grade on crop, a: transplanted rice plant",transplanted rice plant,5 (Herbicidal ratio of 90% or more (almost completely withered))
same,I (Avena fatua) herbicidal effect grade,Avena fatua,4 (Herbicidal ratio of 70% or higher and lower than 90%)
same,"G: Setaria viridis, herbicidal effect grade",Setaria viridis,5 (Herbicidal ratio of 90% or more (almost completely withered))
same,"Herbicidal effect grade, A: Echinochloa oryzacola Vasing.",[1],5 (Herbicidal ratio of 90% or more (almost completely withered))
same,M (Abutilon theophrasti) herbicidal effect grade,Abutilon theophrasti [2],4 (Herbicidal ratio of 70% or higher and lower than 90%)
same,"M: Abutilon theophrasti, herbicidal effect grade",Abutilon theophrasti [3],4 (Herbicidal ratio of 70% or higher and lower than 90%)
same,"Herbicidal effect grade, B: Scirpus juncoides",Scirpus juncoides,5 (Herbicidal ratio of 90% or more (almost completely withered))
same,f (beet) effect on crop grade,beet [4],4 (Herbicidal ratio of 70% or higher and lower than 90%)
same,"K: Lolium multiflorum Lam., herbicidal effect grade",Lolium multiflorum Lam.,5 (Herbicidal ratio of 90% or more (almost completely withered))
same,"herbicidal effect on D (Leptochloa chinensis), grade 0-5",Leptochloa chinensis,5 (Herbicidal ratio of 90% or more (almost completely withered))
same,"f: beet, effect on crop grade",beet [5],3 (Herbicidal ratio of 40% or higher and lower than 70%)
CC(CC1CC(O)=C(c2c(C)cc(C)cc2C)C1=O)=NO (stereo not drawn) [1-058],d (soybean) effect on crop grade,soybean,0 (Herbicidal ratio of 5% or lower (almost no effect))
same,"Effect grade on crop, a: transplanted rice plant",transplanted rice plant,5 (Herbicidal ratio of 90% or more (almost completely withered))
same,I (Avena fatua) herbicidal effect grade,Avena fatua,1 (Herbicidal ratio of 5% or higher and lower than 20%)
same,"G: Setaria viridis, herbicidal effect grade",Setaria viridis,5 (Herbicidal ratio of 90% or more (almost completely withered))
same,"Herbicidal effect grade, A: Echinochloa oryzacola Vasing.",[1],5 (Herbicidal ratio of 90% or more (almost completely withered))
same,M (Abutilon theophrasti) herbicidal effect grade,Abutilon theophrasti [2],4 (Herbicidal ratio of 70% or higher and lower than 90%)
same,"M: Abutilon theophrasti, herbicidal effect grade",Abutilon theophrasti [3],4 (Herbicidal ratio of 70% or higher and lower than 90%)
same,"Herbicidal effect grade, B: Scirpus juncoides",Scirpus juncoides,0 (Herbicidal ratio of 5% or lower (almost no effect))
same,f (beet) effect on crop grade,beet [4],0 (Herbicidal ratio of 5% or lower (almost no effect))
same,"K: Lolium multiflorum Lam., herbicidal effect grade",Lolium multiflorum Lam.,5 (Herbicidal ratio of 90% or more (almost completely withered))
same,"herbicidal effect on D (Leptochloa chinensis), grade 0-5",Leptochloa chinensis,5 (Herbicidal ratio of 90% or more (almost completely withered))
same,"f: beet, effect on crop grade",beet [5],0 (Herbicidal ratio of 5% or lower (almost no effect))
CON=C(C)CC1CC(OC(=O)C(C)Cl)=C(c2c(C)cc(C)cc2C)C1=O (stereo not drawn) [1-042],d (soybean) effect on crop grade,soybean,0 (Herbicidal ratio of 5% or lower (almost no effect))
same,"Effect grade on crop, a: transplanted rice plant",transplanted rice plant,5 (Herbicidal ratio of 90% or more (almost completely withered))
same,I (Avena fatua) herbicidal effect grade,Avena fatua,3 (Herbicidal ratio of 40% or higher and lower than 70%)
same,"G: Setaria viridis, herbicidal effect grade",Setaria viridis,5 (Herbicidal ratio of 90% or more (almost completely withered))
same,"Herbicidal effect grade, A: Echinochloa oryzacola Vasing.",[1],5 (Herbicidal ratio of 90% or more (almost completely withered))
same,M (Abutilon theophrasti) herbicidal effect grade,Abutilon theophrasti [2],5 (Herbicidal ratio of 90% or more (almost completely withered))
same,"M: Abutilon theophrasti, herbicidal effect grade",Abutilon theophrasti [3],3 (Herbicidal ratio of 40% or higher and lower than 70%)
same,"Herbicidal effect grade, B: Scirpus juncoides",Scirpus juncoides,4 (Herbicidal ratio of 70% or higher and lower than 90%)
same,f (beet) effect on crop grade,beet [4],0 (Herbicidal ratio of 5% or lower (almost no effect))
same,"K: Lolium multiflorum Lam., herbicidal effect grade",Lolium multiflorum Lam.,5 (Herbicidal ratio of 90% or more (almost completely withered))
same,"herbicidal effect on D (Leptochloa chinensis), grade 0-5",Leptochloa chinensis,5 (Herbicidal ratio of 90% or more (almost completely withered))
same,"f: beet, effect on crop grade",beet [5],1 (Herbicidal ratio of 5% or higher and lower than 20%)
CON=C(C)C(c1ccc(F)cc1)C1CC(O)=C(c2c(C)cc(C)cc2C)C1=O (stereo not drawn) [1-049],d (soybean) effect on crop grade,soybean,0 (Herbicidal ratio of 5% or lower (almost no effect))
same,"Effect grade on crop, a: transplanted rice plant",transplanted rice plant,0 (Herbicidal ratio of 5% or lower (almost no effect))
same,I (Avena fatua) herbicidal effect grade,Avena fatua,0 (Herbicidal ratio of 5% or lower (almost no effect))
same,"G: Setaria viridis, herbicidal effect grade",Setaria viridis,0 (Herbicidal ratio of 5% or lower (almost no effect))
same,"Herbicidal effect grade, A: Echinochloa oryzacola Vasing.",[1],0 (Herbicidal ratio of 5% or lower (almost no effect))
same,M (Abutilon theophrasti) herbicidal effect grade,Abutilon theophrasti [2],0 (Herbicidal ratio of 5% or lower (almost no effect))
same,"M: Abutilon theophrasti, herbicidal effect grade",Abutilon theophrasti [3],0 (Herbicidal ratio of 5% or lower (almost no effect))
same,"Herbicidal effect grade, B: Scirpus juncoides",Scirpus juncoides,0 (Herbicidal ratio of 5% or lower (almost no effect))
same,f (beet) effect on crop grade,beet [4],0 (Herbicidal ratio of 5% or lower (almost no effect))
same,"K: Lolium multiflorum Lam., herbicidal effect grade",Lolium multiflorum Lam.,0 (Herbicidal ratio of 5% or lower (almost no effect))
same,"herbicidal effect on D (Leptochloa chinensis), grade 0-5",Leptochloa chinensis,0 (Herbicidal ratio of 5% or lower (almost no effect))
same,"f: beet, effect on crop grade",beet [5],0 (Herbicidal ratio of 5% or lower (almost no effect))
CSCCON=C(C)CC1CC(O)=C(c2c(C)cc(C)cc2C)C1=O (stereo not drawn) [1-029],d (soybean) effect on crop grade,soybean,0 (Herbicidal ratio of 5% or lower (almost no effect))
same,"Effect grade on crop, a: transplanted rice plant",transplanted rice plant,5 (Herbicidal ratio of 90% or more (almost completely withered))
same,I (Avena fatua) herbicidal effect grade,Avena fatua,1 (Herbicidal ratio of 5% or higher and lower than 20%)
same,"G: Setaria viridis, herbicidal effect grade",Setaria viridis,5 (Herbicidal ratio of 90% or more (almost completely withered))
same,"Herbicidal effect grade, A: Echinochloa oryzacola Vasing.",[1],4 (Herbicidal ratio of 70% or higher and lower than 90%)
same,M (Abutilon theophrasti) herbicidal effect grade,Abutilon theophrasti [2],0 (Herbicidal ratio of 5% or lower (almost no effect))
same,"M: Abutilon theophrasti, herbicidal effect grade",Abutilon theophrasti [3],1 (Herbicidal ratio of 5% or higher and lower than 20%)
same,"Herbicidal effect grade, B: Scirpus juncoides",Scirpus juncoides,0 (Herbicidal ratio of 5% or lower (almost no effect))
same,f (beet) effect on crop grade,beet [4],0 (Herbicidal ratio of 5% or lower (almost no effect))
same,"K: Lolium multiflorum Lam., herbicidal effect grade",Lolium multiflorum Lam.,5 (Herbicidal ratio of 90% or more (almost completely withered))
same,"herbicidal effect on D (Leptochloa chinensis), grade 0-5",Leptochloa chinensis,5 (Herbicidal ratio of 90% or more (almost completely withered))
same,"f: beet, effect on crop grade",beet [5],0 (Herbicidal ratio of 5% or lower (almost no effect))
CON=C(C)CC1CC(OC(=O)COc2ccc(I)cc2)=C(c2c(C)cc(C)cc2C)C1=O (stereo not drawn) [1-082],"d: soybean, effect grade on crop",soybean; 320 g/ha,2 (Herbicidal ratio of 20% or higher and lower than 40%)
same,"Effect grade on crop, a: transplanted rice plant",transplanted rice plant,5 (Herbicidal ratio of 90% or more (almost completely withered))
same,"I: Avena fatua, herbicidal effect grade",Avena fatua; 320 g/ha,3 (Herbicidal ratio of 40% or higher and lower than 70%)
same,"G: Setaria viridis, herbicidal effect (criteria 0-5)",Setaria viridis,5 (Herbicidal ratio of 90% or more (almost completely withered))
same,"Herbicidal effect grade, A: Echinochloa oryzacola Vasing.",[1],5 (Herbicidal ratio of 90% or more (almost completely withered))
same,"M: Abutilon theophrasti, herbicidal effect grade",Abutilon theophrasti [2]; 320 g/ha,5 (Herbicidal ratio of 90% or more (almost completely withered))
same,"M: Abutilon theophrasti, herbicidal effect (criteria 0-5)",Abutilon theophrasti [3],4 (Herbicidal ratio of 70% or higher and lower than 90%)
same,"Herbicidal effect grade, B: Scirpus juncoides",Scirpus juncoides,5 (Herbicidal ratio of 90% or more (almost completely withered))
same,"f: beet, effect grade on crop",beet [4]; 320 g/ha,0 (Herbicidal ratio of 5% or lower (almost no effect))
same,"K: Lolium multiflorum Lam., herbicidal effect (criteria 0-5)",Lolium multiflorum Lam.,5 (Herbicidal ratio of 90% or more (almost completely withered))
same,"herbicidal effect on D (Leptochloa chinensis), grade 0-5",Leptochloa chinensis,5 (Herbicidal ratio of 90% or more (almost completely withered))
same,"f: beet, effect on crop (criteria 0-5)",beet [5],0 (Herbicidal ratio of 5% or lower (almost no effect))
